Tested on: A20 tumors
Experiment: Mouse syngeneic lymphoma A20 bilateral tumor model, single agent dose response
Type: in vivo
Settings: Compound 15 alone i.t., two weekly doses
Protocol: The anti-tumor efficacy of Compound 15 adsorbed to Alhydrogel® was determined using the mouse syngeneic lymphoma A20 bilateral tumor model in female BALB/c mice.
A20 cells were grown in sterile conditions in a 37° C. incubator with 5% CO2 for two weeks. Cells were grown in RPMI 1640 medium with 2 mM L-glutamine adjusted to contain 1.5 g/L sodium bicarbonate, 4.5 g/L glucose, 10 mM HEPES, and 1.0 mM sodium pyruvate and supplemented with 0.05 mM 2-mercaptoethanol, 10% fetal bovine serum. Cells were passaged every 2-3 days. For the day of implant cells were lifted (passage 12) and re-suspended in HBSS at a concentration of 5×10^6 cells/100 μL. Cells were Radil tested for mycoplasma and murine viruses. For each mouse, 5×10^6 cells were implanted by subcutaneous injection into the right and left flank using a 28.5 g needle (100 μl injection volume). Tumor sizes were assessed three times a week once tumors were palpable. Tumor sizes were determined by using caliper measurements, with tumor volumes calculated using the formula: (Length×Width×Width)/2.
The female Balb/c mice bearing the A20 tumors were randomized into 7 groups (n=10 mice per group) 8 days post tumor cell implantation with an average tumor volume range of 111.40±23.57 mm^3. […]
Tumor volumes were measured by digital caliper 3 times a week and body weights of all animals were recorded throughout the study. […]

Cc1cc(OCCOCCC(F)(F)P(=O)(O)O)ccc1CCc1cnc2c(N)nc3cc(CCC(=O)O)ccc3c2c1 [Compound 15, 3-(5-amino-2-(4-(2-(3,3-difluoro-3-phosphonopropoxy)ethoxy)-2-methylphenethyl)benzo[f][1,7]naphthyridin-8-yl)propanoic acid]
tumor growth, both tumor sites: no significant difference in both tumor sites

— patent US11752162B2, “Compounds and compositions for treating solid tumors by intratumoral administration” (Novartis AG, priority 2017, dated 2023)
